In patent publication US10851115B2, “Heterocyclic compounds as RSV inhibitors” (Enanta Pharmaceuticals, Inc., priority 2017, dated 2020):

These compounds were tested on Human RSV-A (“Long” strain) (assay: RSV in vitro cytoprotection assay in HEp-2 cells (ATPlite readout)). Conditions: human respiratory syncytial virus, 96 h; HEp-2 cells, 4-day incubation, ATPlite; read-out: Human RSV-A (“Long” strain) EC50.
Format: cell-based
Summary of the method: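 HEp-2 cells (8,000/well) given 2-fold compound dilutions in duplicate, then infected with RSV-A Long stock; 4-day incubation. Cell viability read by ATPlite luminescence (ATP), with parallel uninfected plate for cytotoxicity; EC50 from protection against CPE.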

EC50 [nM]	Compound
10 to 50	Cc1cnc(N2CC3(CCOCC3)C2)c(C(=O)Nc2ccc(C(=O)N3CCc4cc(C(=O)Nc5c(F)cccc5F)sc4-c4nc(C)ccc43)cc2)c1 [Example 138]
10 to 50	Cc1cnc(N2CC3(CCOCC3)C2)c(C(=O)Nc2ccc(C(=O)N3CCc4cc(C(=O)Nc5c(C)cccc5F)sc4-c4nc(C)ccc43)cc2)c1 [Example 139]
10 to 50	Cc1cnc(N2CC3(CCOCC3)C2)c(C(=O)Nc2ccc(C(=O)N3CCc4cc(C(=O)Nc5ncccc5F)sc4-c4nc(C)ccc43)cc2)c1 [Example 140]
10 to 50	Cc1ccc2c(n1)-c1sc(C(=O)Nc3c(F)cccc3F)cc1CCN2C(=O)c1ccc(NC(=O)c2ccc(C)nc2N2CC3(CCOCC3)C2)cc1 [Example 144]
10 to 50	Cc1ccc2c(n1)-c1sc(C(=O)Nc3ncccc3F)cc1CCN2C(=O)c1ccc(NC(=O)c2ccc(C)nc2N2CC3(CCOCC3)C2)cc1 [Example 146]
> 50	Cc1ccc2c(n1)-c1sc(C(=O)Nc3c(F)cccc3C(F)(F)F)cc1CCN2C(=O)c1ccc(NC(=O)c2ccc(C)nc2N2CC3(CCOCC3)C2)cc1 [Example 149]
< 10	Cc1cnc(N2CC3(CCOCC3)C2)c(C(=O)Nc2ccc(C(=O)N3CCc4cc(NC(=O)c5c(F)cccc5F)sc4-c4ncccc43)cc2)c1 [Example 151]
< 10	Cc1cnc(N2CC3(CCOCC3)C2)c(C(=O)Nc2ccc(C(=O)N3CCc4cc(NC(=O)c5c(C)cccc5F)sc4-c4ncccc43)cc2)c1 [Example 152]
< 10	Cc1cnc(N2CC3(CCOCC3)C2)c(C(=O)Nc2ccc(C(=O)N3CCc4cc(NC(=O)c5c(F)cccc5Cl)sc4-c4ncccc43)cc2)c1 [Example 153]
< 10	Cc1cnc(N2CC3(CCOCC3)C2)c(C(=O)Nc2ccc(C(=O)N3CCc4cc(NC(=O)c5ncccc5F)sc4-c4ncccc43)cc2)c1 [Example 154]
< 10	Cc1cnc(N2CC3(CCOCC3)C2)c(C(=O)Nc2ccc(C(=O)N3CCc4cc(NC(=O)c5ccccc5F)sc4-c4ncccc43)cc2)c1 [Example 156]
< 10	Cc1ccc(C(=O)Nc2ccc(C(=O)N3CCc4cc(NC(=O)c5c(F)cccc5F)sc4-c4ncccc43)cc2)c(N2CC3(CCOCC3)C2)n1 [Example 157]
10 to 50	Cc1ccc(C(=O)Nc2ccc(C(=O)N3CCc4cc(NC(=O)c5c(C)cccc5F)sc4-c4ncccc43)cc2)c(N2CC3(CCOCC3)C2)n1 [Example 158]
10 to 50	Cc1ccc(C(=O)Nc2ccc(C(=O)N3CCc4cc(NC(=O)c5c(F)cccc5Cl)sc4-c4ncccc43)cc2)c(N2CC3(CCOCC3)C2)n1 [Example 159]
< 10	Cc1cnc2c(c1)N(C(=O)c1ccc(NC(=O)c3cccnc3N3CC4(CCOCC4)C3)cc1)CCc1cc(C(=O)Nc3c(F)cccc3Cl)sc1-2 [Example 162]

More lines, now with the values behind:

Compound	EC50 [nM]
Cc1cnc(N2CC3(CCOCC3)C2)c(C(=O)Nc2ccc(C(=O)N3CCc4cc(C(=O)Nc5c(C)cccc5C#N)sc4-c4nc(C)ccc43)cc2)c1 [Example 141]	> 50
Cc1cnc(N2CC3(CCOCC3)C2)c(C(=O)Nc2ccc(C(=O)N3CCc4cc(C(=O)Nc5c(F)cccc5Cl)sc4-c4nc(C)ccc43)cc2)c1 [Example 142]	10 to 50
Cc1cnc(N2CC3(CCOCC3)C2)c(C(=O)Nc2ccc(C(=O)N3CCc4cc(C(=O)Nc5c(F)cccc5C(F)(F)F)sc4-c4nc(C)ccc43)cc2)c1 [Example 143]	> 50
Cc1ccc2c(n1)-c1sc(C(=O)Nc3c(C)cccc3F)cc1CCN2C(=O)c1ccc(NC(=O)c2ccc(C)nc2N2CC3(CCOCC3)C2)cc1 [Example 145]	> 50
Cc1ccc2c(n1)-c1sc(C(=O)Nc3c(C)cccc3C#N)cc1CCN2C(=O)c1ccc(NC(=O)c2ccc(C)nc2N2CC3(CCOCC3)C2)cc1 [Example 147]	> 50
Cc1ccc2c(n1)-c1sc(C(=O)Nc3c(F)cccc3Cl)cc1CCN2C(=O)c1ccc(NC(=O)c2ccc(C)nc2N2CC3(CCOCC3)C2)cc1 [Example 148]	> 50
Cc1cnc(N2CC3(CCOCC3)C2)c(C(=O)Nc2ccc(C(=O)N3CCc4cc(NC(=O)c5ccccc5)sc4-c4ncccc43)cc2)c1 [Example 155]	< 10
Cc1ccc(C(=O)Nc2ccc(C(=O)N3CCc4cc(NC(=O)c5ccccc5F)sc4-c4ncccc43)cc2)c(N2CC3(CCOCC3)C2)n1 [Example 160]	< 10
Cc1cnc2c(c1)N(C(=O)c1ccc(NC(=O)c3cccnc3N3CC4(CCOCC4)C3)cc1)CCc1cc(C(=O)Nc3c(C)cccc3F)sc1-2 [Example 161]	< 10
Cc1cnc2c(c1)N(C(=O)c1ccc(NC(=O)c3cccnc3N3CC4(CCOCC4)C3)cc1)CCc1cc(C(=O)Nc3c(F)cccc3F)sc1-2 [Example 164]	< 10

Same assay, conditions: human respiratory syncytial virus, HEp-2

Compound	EC50 [nM]
O=C(Nc1ccccc1F)N[C@H]1N=C(c2ccccc2)c2ccccc2NC1=O [RSV-604, reference compound]	~2400
